Patent US10201587B2, “Methods of inhibiting and treating biofilms using glycopeptide antibiotics” (MELINTA THERAPEUTICS, INC., priority 2008, dated 2019)

Assays:
[1] = tested on: E. faecium ATCC 51559 (VanA VRE); assay: MBEC plate biofilm eradication; format: cell-based; settings: 24 h of drug challenge
From the text: (§1) The following strains were used for in vitro biofilm studies: vancomycin (VAN)-susceptible Enterococcus faecalis ATCC 29212 (VSE), VAN-resistant E. faecalis ATCC 51299 (VanB VRE), E. faecium ATCC 51559 (VanA VRE), S. epidermidis ATCC 12228 and the slime-producing strain S. epidermidis ATCC 35984. Biofilms were established in MBEC™ Physiology & Genetics Assay plates (Innovotech; Edmonton, Canada).

[2] = tested on: VAN-resistant E. faecalis ATCC 51299 (VanB VRE); assay: MBEC plate biofilm eradication; format: cell-based; settings: 24 h of drug challenge
From the text: as §1

[3] = tested on: S. epidermidis ATCC 12228; assay: MBEC plate biofilm eradication; format: cell-based; settings: single agents
From the text: as §1

[4] = tested on: vancomycin (VAN)-susceptible Enterococcus faecalis ATCC 29212 (VSE); assay: MBEC plate biofilm eradication; format: cell-based; settings: 24 h of drug challenge
From the text: as §1

[5] = tested on: Staphylococcus epidermidis ATCC 35984; assay: Prevention of in vitro biofilm formation on coated silicone tubing; format: cell-based; settings: silicone tubing incubated overnight in 20 mg/ml solution; inoculum 10^5 or 10^7 CFU/ml
Procedure: Silicone tubing (0.040″ inner-diameter by 0.085″ outer-diameter by 0.023″ wall thickness; VWR International) was cut into 1 cm lengths then cut longitudinally in half. Cut tubing pieces were sterilized overnight in 99% ethanol. Tubing pieces were rinsed in 2 ml of sterile water then incubated overnight at room temperature in 20 mg/ml of either oritavancin or chloroeremomycin solution in water. Control tubing pieces were incubated in water as described. The following day, tubing pieces were rinsed in 2 ml of water then incubated with Staphylococcus epidermis ATCC 35984 at an inoculum density of either 10^5 CFU/ml or 10^7 CFU/ml in tryptic soy broth at 37° C. with rotation at 150 rpm in a rotational incubator. Tubing pieces were rinsed in 2 ml of sterile physiologic saline and bacteria in the biofilm formed on the silicone tubing were recovered by sonicating the tubing pieces in 1 ml of sterile physiologic saline in a sonicating water bath (VWR Aquasonic model 550D). Recovered bacteria were enumerated by serial dilution plating.

[6] = tested on: S. epidermidis ATCC 35984; assay: MBEC plate biofilm eradication, agents in combination; format: cell-based
From the text: as §1

[7] = humans, cited from earlier work
MSSA ATCC 29213 = assay: Time-kill in nutrient-depleted CAMHB; format: cell-based, S. aureus; settings: stationary-phase, estimated free-trough concentration 0.5 μg/mL, 24 hours
Procedure: (§2) Nutrient-depleted CAMHB from each respective strain was prepared by 3 rounds of inoculation of CAMHB with exponential-phase bacteria, incubation overnight at 37° C. with rotation (225 rpm) and centrifugation (8000×g for 30 minutes) to remove bacteria. After the final round of inoculation, growth and centrifugation, the pH of the nutrient-depleted CAMHB was adjusted to pH=7.0 and the spent medium was filter-sterilized using a […] membrane (Corning Incorporated, Corning, N.Y.).
(§3) Nutrient-depleted CAMHB containing diluted antimicrobial agents was inoculated with stationary-phase bacteria from overnight cultures of the S. aureus strains at approximately 10^7 colony-forming units (CFU)/mL. Other experiments compared the killing of stationary- and exponential-phase S. aureus ATCC 29213 when inoculated into nutrient-depleted CAMHB containing the test agents. For assays involving daptomycin, nutrient-depleted CAMHB was supplemented with 50 μg/ml CaCl2 (8). All time-kill studies were performed in 96-well deep-well plates at 37° C. with rotation (225 rpm) in a total volume of 750 μL. Bacteria were enumerated by serial-dilution plating. Bacteriostatic and bactericidal activity of the antimicrobial agents were defined as a reduction in viable cell counts of <3 or ≥3 log at 24 hours relative to the starting inoculum, respectively (33). Experiments were repeated at least three times and produced similar results; results from one experiment are presented.

MRSA ATCC 33591 = assay: Time-kill in nutrient-depleted CAMHB; format: cell-based, S. aureus; settings: stationary-phase, free-trough concentration 0.5 μg/mL, 24 hours
Procedure: as §2, §3

VRSA VRS5 = assay: Time-kill in nutrient-depleted CAMHB; format: cell-based, S. aureus
Procedure: as §2, §3

S. aureus ATCC 29213 = assay: Membrane permeability, SYTO-9/propidium iodide fluorescence; format: cell-based; settings: stationary-phase cells, 30 min
Procedure: For membrane permeability assays, bacteria were prepared identically as described above for the membrane depolarization assay with the exception that SYTO-9 and propidium iodide (Invitrogen Corporation) were added at 5 μM and 30 μM, respectively. Experiments were repeated three times and produced similar results; results from one assay are presented.

[8] = standard dose (oritavancin 200 mg)

With `CN[C@H](CC(C)C)C(=O)N[C@H]1C(=O)N[C@@H](CC(N)=O)C(=O)N[C@H]2C(=O)N[C@H]3C(=O)N[C@H](C(=O)N[C@H](C(=O)O)c4cc(O)cc(O)c4-c4cc3ccc4O)[C@H](O[C@H]3C[C@](C)(N)[C@@H](O)[C@H](C)O3)c3ccc(c(Cl)c3)Oc3cc2cc(c3O[C@@H]2O[C@H](CO)[C@@H](O)[C@H](O)[C@H]2O[C@H]2C[C@](C)(NCc3ccc(-c4ccc(Cl)cc4)cc3)[C@@H](O)[C@H](C)O2)Oc2ccc(cc2Cl)[C@H]1O` [Oritavancin, N-(4-(4-chlorophenyl)benzyl)A82846B] as the molecule, how does the MBEC [1] read?
Its MBEC is 2 to 4 mg/L.

What about the MBEC [2] of the same molecule?
Its MBEC is 2 to 4 mg/L.

And the MBEC [3]?
Its MBEC is 2 to 4 mg/L.

What about the MBEC [4] of the same molecule?
The MBEC was 2 to 4 mg/L.

And the “activity on a coated surface against biofilm formation” value [5]?
The value was “significant activity”.

What about the MBEC in combination ([6]; combination of ORI and MOX required for sterilization) of the same molecule?
The MBEC in combination was 4 mg/L.

What about the MBEC in combination ([6]; combination of ORI and RFB required for sterilization) of the same molecule?
The MBEC in combination was 4 mg/L.

And the “predicted fCmax 800 in plasma” value ([7]; single 800 mg dose)?
Its value is 16 µg/mL.

And the “estimated fCmax in plasma” value [7, 8]?
Its value is 4 µg/mL.

What about the “estimated free trough concentration in plasma” value [7, 8] of the same molecule?
The value was 0.5 µg/mL.

What about the “reduction in viable cell counts” value (MSSA ATCC 29213) of the same molecule?
Its value is “approx 2.9 log”.

What about the “reduction in viable cell counts” value (MRSA ATCC 33591) of the same molecule?
Its value is “approx 0.4 log”.

What about the “activity at the 24-hour time point” value (VRSA VRS5; stationary-phase inoculum, fCmax 800 (16 μg/mL)) of the same molecule?
The value was “bactericidal (Bacteriostatic and bactericidal activity of the antimicrobial agents were defined as a reduction in viable cell counts of <3 or ≥3 log at 24 hours relative to the starting inoculum, respectively)”.

What about the “decrease in viable cell counts” value (VRSA VRS5; stationary-phase, fCmax, 24 hours) of the same molecule?
The value was “approx 2.2 log”.

And the “reduction in viable cell counts” value (VRSA VRS5; stationary-phase, free-trough concentration 0.5 μg/mL, 24 hours)?
The value was “approx 1.2 log”.

What about the “membrane permeability (SYTO-9 fluorescence)” value (S. aureus ATCC 29213) of the same molecule?
The value was “increased membrane permeability”.
